Reference: patent US10632227B2, “Method of making injectable cements” (Wayne State University, priority 2015, dated 2020)

Tested on: S. aureus
Test: modified MIC assay, bactericidal activity of eluents from CPP mix cements
Assay type: cell-based
Conditions: EM eluted from cement or gel
Description: A modified minimum inhibitory concentration (MIC) assay was developed to measure the bactericidal activity of erythromycin eluted from the CPP mix cements. Briefly, a Mueller-Hinton broth inoculated with S. aureus […] was cultured at about 37° C. until an absorbance reading of about 0.08 to about 0.1 was attained at 625 nm, corresponding to roughly 1-2×10^8 CFU/ml. Then about 200 μl of eluents from CPP mix cements collected at various time points was added into about 800 μL of the bacterial broth and incubation continued at about 37° C. for about 6 hours, followed by OD measurement at about 625 nm. The MIC was determined by the lowest concentration that inhibited the growth of bacterium as characterized by a lack of turbidity and lower OD readings. Bacterial culture in Mueller Hinton broth without erythromycin was included as a positive control. Bactericidal activity assays were conducted in duplicate for both the blank and testing samples.

## CC[C@H]1OC(=O)[C@H](C)[C@@H](O[C@H]2C[C@@](C)(OC)[C@@H](O)[C@H](C)O2)[C@H](C)[C@@H](O[C@@H]2O[C@H](C)C[C@H](N(C)C)[C@H]2O)[C@](C)(O)C[C@@H](C)C(=O)[C@H](C)[C@@H](O)[C@]1(C)O [EM, erythromycin]
  bactericidal activity / stability of eluted EM: stable and active
